Test results: BindingDB's records for doi:10.1016/s1074-5521(98)90168-5 (University of California San Francisco, 1998)

Columns and labels:
[1] = biological target: T1, Thyroid hormone receptor alpha (Homo sapiens, UniProt P10827); assay: TR Receptor Ligand Binding Assay
T1 sequence (P10827 whole entry): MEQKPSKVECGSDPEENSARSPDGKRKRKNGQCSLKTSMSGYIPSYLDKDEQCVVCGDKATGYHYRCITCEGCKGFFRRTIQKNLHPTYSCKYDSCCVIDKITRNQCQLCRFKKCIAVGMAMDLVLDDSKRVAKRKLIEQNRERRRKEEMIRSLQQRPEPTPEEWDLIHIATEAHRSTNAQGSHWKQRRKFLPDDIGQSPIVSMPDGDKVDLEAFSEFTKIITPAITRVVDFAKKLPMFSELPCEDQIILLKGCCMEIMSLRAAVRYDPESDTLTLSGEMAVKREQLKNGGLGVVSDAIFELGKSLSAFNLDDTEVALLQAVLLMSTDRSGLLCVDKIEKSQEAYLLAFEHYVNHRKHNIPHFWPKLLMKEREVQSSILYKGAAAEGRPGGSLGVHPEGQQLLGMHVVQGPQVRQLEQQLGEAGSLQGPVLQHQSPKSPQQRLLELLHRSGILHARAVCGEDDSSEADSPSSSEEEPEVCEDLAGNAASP
Description: (§1) Human thyroid hormone receptor alpha and beta (hTR alpha1) and (hTR beta1) were produced using TNT coupled reticulocyte lysate system from Promega.

[2] = biological target: T2, Thyroid hormone receptor beta (Homo sapiens, UniProt P10828); assay: TR Receptor Ligand Binding Assay
T2 sequence (P10828 whole entry): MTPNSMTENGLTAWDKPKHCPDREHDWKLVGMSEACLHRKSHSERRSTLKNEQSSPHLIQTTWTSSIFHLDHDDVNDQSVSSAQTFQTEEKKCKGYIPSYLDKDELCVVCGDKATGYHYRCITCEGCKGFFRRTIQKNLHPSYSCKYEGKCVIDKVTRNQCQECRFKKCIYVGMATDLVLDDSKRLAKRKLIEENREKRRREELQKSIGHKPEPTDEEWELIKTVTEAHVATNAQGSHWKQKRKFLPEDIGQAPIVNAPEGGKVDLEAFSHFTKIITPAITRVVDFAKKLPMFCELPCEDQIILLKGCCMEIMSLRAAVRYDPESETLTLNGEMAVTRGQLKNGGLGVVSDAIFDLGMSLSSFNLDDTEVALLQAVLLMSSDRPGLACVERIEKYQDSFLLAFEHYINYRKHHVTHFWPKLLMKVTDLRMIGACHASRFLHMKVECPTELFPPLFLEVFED
Description: as §1

A Kd [1] of 9.7 nM and a Kd [2] of 9.8 nM were found for `Cc1cc(C[C@H](N)C(=O)O)cc(C)c1Oc1ccc(O)c(C(C)C)c1` [Dimethyl-isopropyl-T3 (DIMIT)] in this work.
